The record followed here is patent US11478526B2, “Methods of reducing neuroinflammation or toxicity induced by amyloid beta (abeta) using glucocorticoid induced leucine zipper (GILZ) analog peptides” (INDIANA UNIVERSITY RESEARCH AND TECHNOLOGY CORPORATION, priority 2016, dated 2022).

One series has as its system HFNC. As to the kind of experiment: Morphology of HFNC under inverted bright field microscope. It counts as cell-based, human.
For the next series, the system named is Aβ1-42 exposed HFB cells. The series is described as follows: Cytokines in culture medium of Aβ1-42 exposed HFB. Format: cell-based, human. The settings on record: 50 μM peptide. How it is done: Fetal brain materials (10-20 g) were shipped overnight in chilled Hibernate-E medium (Invitrogen) supplemented with B27 (Invitrogen), GlutaMAX (Invitrogen) and antibiotic-antimycotic solution (Cellgro). HFB were prepared and cultured as described. Briefly, cells were cultured in Neurobasal medium (Invitrogen) without phenol red supplemented with 1×B27, […] GlutaMAX, 1×antibiotic cocktail, 5 ng/mL recombinant fibroblast growth factor 2 (bFGF) (Invitrogen), and 2 μL/mL Normocin (InVivoGen, San Diego, Calif., USA). Cells were counted and seeded onto poly-D-lysine (Sigma-Aldrich) coated 24-well plates (Corning, Lowell, Mass., USA) at 1.5×10^5 cells per well and maintained at 37° C. in a 5% CO2 incubator. Half media changes were performed every 4th day of culture and morphology was monitored via phase contrast microscopy. Culture medium was removed from cells on day 17 (DIV17) and replaced with Neurobasal medium with B27. Appropriate wells were then added vehicle, or carrier peptide or individual GA or control peptide (at 50 μM) for 30 min followed by exposure to Aβ1-42 at a final concentration of 10 μM/well and incubated for 4 hours or 48 hours. Cells and conditioned media were harvested and stored for further analysis. Relative ATP concentration was measured using the CTG kit (Promega). Data is presented as ΔRLU=RLU of Aβ1-42 exposed cells-RLU unexposed cells. Conditioned media collected were assessed for specific cytokines using the OptEIA kits (BD Biosciences). Nuclear and cytoplasmic fractions were extracted using the CelLytic™ NuCLEAR™ Extraction Kit (Sigma) following manufacturer's protocol. Five microgram of nuclear extracts was incubated in a 96-well plate coated with oligonucleotides containing the NF-κβ consensus nucleotide sequence (5′-[…]-3′) (SEQ ID NO: 30). The activated NF-κβ bound to DNA was detected by anti-p65 antibody followed by a peroxidase coupled secondary antibody and substrate using the TransAM kit protocol (Active Motif). Nuclear extracts of Raji cells was used as the positive control.
Select PGA protects against Aβ1-42 induced toxicity, prevents p65 activation and cytokine response in human fetal brain (HFB) cells. […] Viability in terms of relative luminescent Units (RLU) was quantified using a Glowmax luminometer (Promega, Wis.). Data are presented as ARLU=RLU of Aβ1-42 exposed cells-RLU of unexposed cells. […] The mean RLU of vehicle treated HFB varied between 7352.75+/−1265.2 and 16157.5+/−4950. […] The culture supernatants were assessed for cytokines by ELISA (R&D Systems, Minn.). […] Primary HFB cultured similarly and harvested at the end of 4 hours was assessed for nuclear p65 using TransAM kit for NF-κB p65 (Active Motif, Calif.).

The subject of series [1] is LPS induced neuroinflammation. The series is described as follows: LPS induced neuroinflammation: cytokine ELISA of brain homogenates. Format: in vivo, mouse. The settings on record: 25 mg/kg i.v. alternate days, day 7. How it is done: (§1) Animals and lipopolysaccharide induced neuroinflammation: Male C57/6J mice weighing 32 to 37 grams were housed five per cage at a temperature of 22±2° C. with 12 hour light/12 hour dark cycles with free access to laboratory food and water. Lipopolysaccharides (LPS) from Escherichia coli 026:B6, =10,000 EU/mg, purified by phenol extraction was purchased from Sigma (Sigma Aldrich, Mo., USA). The mice were randomly divided into seven groups: LPS, LPS+GA-1 or GA-2 or CP-1 or CP-2 or CP-3 or TAT. The LPS was administered intraperitoneally at […] in 100 μl of sterile saline followed by corn oil in the morning daily for six days. The GA or CP was administered intravenously at 25 mg/kg in 100 μl of sterile saline on alternate days. Additional control group included mice receiving saline alone. All animals were sacrificed on day 7.
Enzyme linked immunosorbent assay for cytokines: Frozen brain tissue was homogenized in RIPA lysis buffer (50 mmol/LTris-HCl, pH 6.8, 150 mmol/L NaCl, 5 mmol/L EDTA, 0.5% sodium deoxycholate, 0.5% NP-40) supplemented with a cocktail containing protease and phosphatase inhibitors (Chemicon, Millipore) on ice and then centrifuged at 16,000×g for 30 min. Supernatant was stored at −80° C. until further analysis. […]

In series [2] the test system is LPS induced neuroinflammation. The series is described as follows: LPS induced neuroinflammation: real time PCR of brain tissue. It counts as in vivo, mouse. To be noted: 25 mg/kg i.v. alternate days, day 7. On the procedure:
as §1
Real time polymerase chain reaction. Total cellular RNA was isolated from each brain tissue using Qiagen kit (Invitrogen, Carlsbad, Calif.) following manufacturer's protocol and reverse transcribed using iScript cDNA synthesis kit (Biorad, Calif.). Equal amount of cDNA measured by the Nanodrop (ThermoFisher Scientific, Waltham, USA) was used for amplification of IL-1β, IL-12, CD14, BclXL and Bcl2. Real time PCR was performed using SYBR green/ROX qPCR master mix (SA Biosciences, Frederick, Md.) on the ABI Prism 7000 sequence detection system (Applied Biosystem, Foster City, Calif., USA). Each reaction contains 2×12.5 μl of master mix, 1 μl of 10 μM of primers and 50 ng of the cDNA, to a total volume of 25 μl. The thermal cycling conditions included an initial denaturation step at 50° C. for 2 min, 95° C. for 3 min, 39 cycles at 95° C. for 30 s, annealing temperature at 62° C. for 30 s and extension at 72° C. for 30 s.
The gene specific threshold cycle (Ct) for each sample (ΔCt) was corrected by subtracting the Ct for the housekeeping gene β-actin. Untreated controls were chosen as the reference samples. The ΔCt for all experimental samples was subtracted by the ΔCt for the control samples (ΔΔCt).The difference in each gene specific threshold between the sample from vehicle treated and GA or CP treated cells was determined to obtain the relative change in the specific mRNA. The magnitude of change in the mRNA was expressed as 2^−ΔΔCt. Each measurement of a sample was performed in duplicates.

Consider Ac-EPAPLAPYG-NH2 [PGA-2], for which, in the series with HFNC, the “morphology of HFNC” value is recorded as “did not affect the morphology”.

For Ac-EPAPESPQV-NH2 [GA-2], in the series with Aβ1-42 exposed HFB cells, the “relative concentration of IL-6 in culture medium” value was “significantly lower” and the “relative concentration of IL-10 in culture medium” value is on record as “significantly lower”. Also, in series [1], the “IFN-γ in brain tissue” value is 3125.1 ± 815 pg/mL, the “IL-6 in brain tissue homogenates” value came out at 19.6 ± 0.84 pg/mL, the “IL-12 in brain homogenates” value is 101.3 ± 15.9 pg/mL and the “TNF-α in brain homogenates” value turned out to be 1199.2 ± 356.4 pg/mL. In series [2], the “relative expression of BCl2 in brain tissues” value is on record as 1.9+/−0.9, the “relative expression of BclXL in brain tissues” value is reported as 0.25+/−0.4 and the “steady-state mRNA for IL-1β in brain tissues” value is on record as “decreased levels”.

For the substance Ac-EPAPESPQV-NH2 [PGA-4], the “morphology of HFNC” value in the series on HFNC is “did not affect the morphology”.

Ac-EPAPLAPYG-NH2 [GA-1]: in the series on Aβ1-42 exposed HFB cells, the “relative concentration of IL-6 in culture medium” value is given as “significantly lower” and the “relative concentration of IL-10 in culture medium” value is listed as “significantly lower”. Further, in series [1], the “IFN-γ in brain tissue” value is 2863.2 ± 697.5 pg/mL, the “IL-6 in brain tissue homogenates” value came out at 18.7 ± 2 pg/mL, the “IL-12 in brain homogenates” value came out at 92.0 ± 9.3 pg/mL and the “TNF-α in brain homogenates” value turned out to be 1500.1 ± 476 pg/mL. Further, in series [2], the “relative expression of BCl2 in brain tissues” value is 1.25+/−0.5, the “relative expression of BclXL in brain tissues” value is 0.32+/−0.15, the “relative expression of CD14 mRNA in brain tissues” value is reported as 0.48+/−0.1 and the “steady-state mRNA for IL-1β in brain tissues” value is recorded as “decreased levels”.
